Literature values, collected in US11766396B2, “Kit and method for dyeing keratinous material by means of aminosilicone and a chromophoric compound” (Henkel AG & Co. KGaA, priority 2019, dated 2023).

What was measured:
[1] = 25° C.
[2] = 5% solution in water

| Compound | solubility in water [1] | pH value of solution in water [2] |
| --- | --- | --- |
| O=S(=O)([O-])c1ccc(N=Nc2c(O)ccc3ccccc23)cc1.[Na+] [Acid Orange 7, sodium salt of 4-[(2-hydroxy-1-naphthyl)azo]benzene sulphonate] | more than 7 g/L |  |
| Nc1cc(S(=O)(=O)[O-])cc2cc(S(=O)(=O)[O-])c(N=Nc3ccccc3)c(O)c12.[Na+].[Na+] [Acid Red 33, diantrium salt of 5-amino-4-hydroxy-3-(phenylazo)-naphthalene-2,7-disulphonate] | 2.5 g/L |  |
| O=C([O-])c1c(Cl)c(Cl)c(Cl)c(Cl)c1-c1c2c(Br)cc(=O)c(Br)c-2oc2c(Br)c(O)cc(Br)c12.O=C([O-])c1c(Cl)c(Cl)c(Cl)c(Cl)c1-c1c2c(Br)cc(=O)c(Br)c-2oc2c(Br)c(O)cc(Br)c12.[Na+].[Na+] [Acid Red 92, disodium salt of 3,4,5,6-tetrachloro-2-(1,4,5,8-tetrabromo-6-hydroxy-3-oxoxanthen-9-yl)benzoic acid] | greater than 10 g/L |  |
| O=C([O-])C1=NN(c2ccc(S(=O)(=O)[O-])cc2)C(=O)C1N=Nc1ccc(S(=O)(=O)[O-])cc1.[Na+].[Na+].[Na+] (centres unmarked) [Acid Yellow 23, trisodium salt of 4,5-dihydro-5-oxo-1-(4-sulfophenyl)-4-((4-sulfophenyl)azo)-1H-pyrazole-3-carboxylic acid] | highly soluble |  |
| O=P([O-])(O)O.[K+] [Potassium dihydrogen phosphate] |  | 4.4 |
